Laboratory results published in US20260183275A1, “SUBSTITUTED QUINOLONE COMPOUNDS USEFUL AS INHIBITORS OF TLR9” (Bristol-Myers Squibb Company, priority 2022, published 2026).

Key:
Format in all cases: cell-based
human TLR7 = molecular target: T1, human TLR7 (Homo sapiens, UniProt Q9NYK1); test: TLR7 inhibition reporter assay (HEK-Blue cells, SEAP reporter); details: HEK-Blue cells overexpressing human TLR7; stimulated with gardiquimod 7.5 μM; SEAP read after 22 hour; dose range 0.05 nM-50 μM
T1 construct: host or cells: HEK-Blue cells
T1 sequence (Q9NYK1 27-1049): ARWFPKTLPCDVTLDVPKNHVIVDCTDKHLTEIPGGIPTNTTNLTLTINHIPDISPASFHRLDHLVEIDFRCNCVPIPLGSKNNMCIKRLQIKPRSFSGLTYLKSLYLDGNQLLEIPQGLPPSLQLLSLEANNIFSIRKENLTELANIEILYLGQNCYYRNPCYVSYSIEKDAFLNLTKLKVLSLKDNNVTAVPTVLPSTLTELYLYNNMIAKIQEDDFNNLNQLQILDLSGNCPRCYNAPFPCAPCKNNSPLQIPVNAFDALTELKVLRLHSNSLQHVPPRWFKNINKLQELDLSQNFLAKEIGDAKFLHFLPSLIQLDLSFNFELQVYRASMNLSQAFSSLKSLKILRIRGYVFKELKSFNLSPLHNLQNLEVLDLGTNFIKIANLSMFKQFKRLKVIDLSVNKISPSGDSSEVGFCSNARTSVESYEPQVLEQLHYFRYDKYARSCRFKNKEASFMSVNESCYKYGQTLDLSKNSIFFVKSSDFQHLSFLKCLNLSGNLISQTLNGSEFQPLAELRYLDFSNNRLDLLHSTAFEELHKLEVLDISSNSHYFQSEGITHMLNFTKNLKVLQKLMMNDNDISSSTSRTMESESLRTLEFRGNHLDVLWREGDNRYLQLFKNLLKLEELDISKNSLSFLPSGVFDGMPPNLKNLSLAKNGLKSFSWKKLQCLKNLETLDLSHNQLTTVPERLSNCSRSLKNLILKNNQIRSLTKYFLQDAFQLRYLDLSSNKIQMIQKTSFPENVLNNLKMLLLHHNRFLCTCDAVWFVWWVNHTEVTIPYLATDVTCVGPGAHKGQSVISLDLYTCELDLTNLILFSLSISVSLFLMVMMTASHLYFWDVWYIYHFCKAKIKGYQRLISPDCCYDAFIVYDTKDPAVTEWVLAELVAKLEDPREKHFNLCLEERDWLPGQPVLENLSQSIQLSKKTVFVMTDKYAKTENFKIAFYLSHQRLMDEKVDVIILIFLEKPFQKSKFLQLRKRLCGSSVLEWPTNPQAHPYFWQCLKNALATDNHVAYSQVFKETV
Outline: (§1)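 HEK-Blue cells with NF-κB/AP-1-driven SEAP pre-treated 30 min with compounds (0.05 nM-50 μM), then stimulated with gardiquimod 7.5 μM (TLR7), R848 15.9 μM (TLR8) or ODN2006 5 nM (TLR9). SEAP read after 22 h at 37° C; % inhibition relative to agonist+DMSO and reference-inhibitor wells.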

human TLR8 = molecular target: T2, human TLR8 (Homo sapiens, UniProt Q9NR97); test: TLR8 inhibition reporter assay (HEK-Blue cells, SEAP reporter); details: HEK-Blue cells overexpressing human TLR8; stimulated with R848 15.9 μM; SEAP read after 22 hour; dose range 0.05 nM-50 μM
T2 construct: host or cells: HEK-Blue cells
T2 sequence (Q9NR97 27-1041): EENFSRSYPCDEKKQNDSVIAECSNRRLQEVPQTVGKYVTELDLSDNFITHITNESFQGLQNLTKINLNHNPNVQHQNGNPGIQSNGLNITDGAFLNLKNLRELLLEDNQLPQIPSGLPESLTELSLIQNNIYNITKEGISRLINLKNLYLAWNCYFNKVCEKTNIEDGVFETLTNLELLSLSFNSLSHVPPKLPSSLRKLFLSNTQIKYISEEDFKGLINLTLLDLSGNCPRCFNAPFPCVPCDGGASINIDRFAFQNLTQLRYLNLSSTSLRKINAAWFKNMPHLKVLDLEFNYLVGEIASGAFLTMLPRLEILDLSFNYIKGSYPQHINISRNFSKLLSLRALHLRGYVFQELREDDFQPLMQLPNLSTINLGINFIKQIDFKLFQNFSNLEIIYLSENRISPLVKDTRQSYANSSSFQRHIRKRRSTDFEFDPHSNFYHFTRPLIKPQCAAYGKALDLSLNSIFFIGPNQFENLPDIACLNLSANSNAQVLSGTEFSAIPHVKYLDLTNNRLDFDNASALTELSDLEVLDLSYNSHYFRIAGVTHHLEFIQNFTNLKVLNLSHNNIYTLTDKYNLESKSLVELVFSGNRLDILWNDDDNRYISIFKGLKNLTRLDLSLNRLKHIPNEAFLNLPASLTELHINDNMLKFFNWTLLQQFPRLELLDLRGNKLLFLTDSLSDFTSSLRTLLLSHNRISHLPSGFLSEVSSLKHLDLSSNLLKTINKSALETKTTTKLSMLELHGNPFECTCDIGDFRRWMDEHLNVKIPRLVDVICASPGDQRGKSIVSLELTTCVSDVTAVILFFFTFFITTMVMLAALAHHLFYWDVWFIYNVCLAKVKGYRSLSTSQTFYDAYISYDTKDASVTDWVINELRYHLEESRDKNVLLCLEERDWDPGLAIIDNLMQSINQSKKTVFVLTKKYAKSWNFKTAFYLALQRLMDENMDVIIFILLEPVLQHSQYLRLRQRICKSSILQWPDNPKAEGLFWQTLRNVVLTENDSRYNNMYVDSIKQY
Outline: as §1

human TLR9 = molecular target: T3, human TLR9 (Homo sapiens, UniProt Q9NR96); test: TLR9 inhibition reporter assay (HEK-Blue cells, SEAP reporter); details: HEK-Blue cells overexpressing human TLR9; stimulated with ODN2006 5 nM; SEAP read after 22 hour; dose range 0.05 nM-50 μM
T3 construct: host or cells: HEK-Blue cells
T3 sequence (Q9NR96 26-1032): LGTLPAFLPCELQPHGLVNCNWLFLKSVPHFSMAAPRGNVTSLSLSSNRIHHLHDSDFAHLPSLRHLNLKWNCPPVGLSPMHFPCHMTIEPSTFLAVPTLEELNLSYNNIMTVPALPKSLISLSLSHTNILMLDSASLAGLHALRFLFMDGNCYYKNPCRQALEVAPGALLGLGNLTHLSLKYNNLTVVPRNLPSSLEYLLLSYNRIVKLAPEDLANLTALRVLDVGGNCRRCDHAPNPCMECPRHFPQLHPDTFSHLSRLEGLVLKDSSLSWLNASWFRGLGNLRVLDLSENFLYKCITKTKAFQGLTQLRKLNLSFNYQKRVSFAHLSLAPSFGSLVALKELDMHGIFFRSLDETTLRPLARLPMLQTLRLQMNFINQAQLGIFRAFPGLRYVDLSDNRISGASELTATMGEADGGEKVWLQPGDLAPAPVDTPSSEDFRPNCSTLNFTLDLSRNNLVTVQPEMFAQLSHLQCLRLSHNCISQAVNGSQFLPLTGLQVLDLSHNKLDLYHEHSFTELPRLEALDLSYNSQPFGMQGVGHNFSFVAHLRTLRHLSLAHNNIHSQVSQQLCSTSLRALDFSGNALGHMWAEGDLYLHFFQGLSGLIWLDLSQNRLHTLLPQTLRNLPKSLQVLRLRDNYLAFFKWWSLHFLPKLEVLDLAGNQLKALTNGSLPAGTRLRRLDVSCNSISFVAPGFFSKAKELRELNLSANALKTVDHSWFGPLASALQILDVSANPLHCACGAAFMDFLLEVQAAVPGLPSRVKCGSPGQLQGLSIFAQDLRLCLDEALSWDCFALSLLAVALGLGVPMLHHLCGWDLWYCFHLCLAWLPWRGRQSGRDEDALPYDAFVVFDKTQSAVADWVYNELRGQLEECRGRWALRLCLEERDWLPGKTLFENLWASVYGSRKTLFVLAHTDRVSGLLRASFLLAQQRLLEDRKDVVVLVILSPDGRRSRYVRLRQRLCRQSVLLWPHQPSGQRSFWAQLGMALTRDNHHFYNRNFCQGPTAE
Outline: as §1

Structure (SMILES) | IC50 (human TLR7) [µM] | IC50 (human TLR8) [µM] | IC50 (human TLR9) [µM]
COc1cccc(-c2cc3cc(-c4ccc(N5CCN(C(C)C)CC5)cc4)ccc3[nH]c2=O)c1 [Example 30, 3-(3-methoxyphenyl)-6-{4-[4-(propan-2-yl)piperazin-1-yl]phenyl}-1,2-dihydroquinolin-2-one] | 2.16 | 5.21 | 0.277
Cc1ccccc1-c1cc2cc(-c3ccc(N4CCN(C(C)C)CC4)cc3)ccc2[nH]c1=O [Example 25, 3-(2-methylphenyl)-6-{4-[4-(propan-2-yl)piperazin-1-yl]phenyl}-1,2-dihydroquinolin-2-one] | 6.48 | 1.39 | 0.226
CC(C)N1CCN(c2ccc(-c3ccc4[nH]c(=O)c(-c5ccc(N6CC[C@H](F)C6)cc5)cc4c3)cc2)CC1 [Example 22, 3-{4-[(3S)-3-fluoropyrrolidin-1-yl]phenyl}-6-{4-[4-(propan-2-yl)piperazin-1-yl]phenyl}-1,2-dihydroquinolin-2-one] | ≥ 50 | ≥ 50 | 0.216
CC(C)N1CCN(c2ccc(-c3ccc4[nH]c(=O)c(-c5ccc(S(C)(=O)=O)cc5)cc4c3)cc2)CC1 [Example 4, 3-(4-methanesulfonylphenyl)-6-{4-[4-(propan-2-yl)piperazin-1-yl]phenyl}-1,2-dihydroquinolin-2-one] | 4.69 | ≥ 50 | 0.206
CS(=O)(=O)Nc1cccc(-c2cc3cc(-c4ccc(C5CCN(C6COC6)CC5)cc4)ccc3[nH]c2=O)c1 [Example 98, N-[3-(6-{4-[1-(oxetan-3-yl)piperidin-4-yl]phenyl}-2-oxo-1,2-dihydroquinolin-3-yl)phenyl]methanesulfonamide] | ≥ 50 | 26.7 | 1.43
CC(C)N1CCN(c2ccc(-c3ccc4[nH]c(=O)c(-c5ccc(C(=O)N(C)C6COC6)cc5)cc4c3)cc2)CC1 [Example 13, N-methyl-N-(oxetan-3-yl)-4-(2-oxo-6-{4-[4-(propan-2-yl)piperazin-1-yl]phenyl}-1,2-dihydroquinolin-3-yl)benzamide] | 4.89 | ≥ 50 | 0.122
CC(C)N1CCC(c2ccc(-c3ccc4[nH]c(=O)c(-c5ccc(S(C)(=O)=O)cc5)cc4c3)cc2)CC1 [Example 71, 3-(4-methanesulfonylphenyl)-6-{4-[1-(propan-2-yl)piperidin-4-yl]phenyl}-1,2-dihydroquinolin-2-one] | 29.9 | 9.28 | 0.14
CCc1c(-c2ccc(S(C)(=O)=O)cc2)c(=O)[nH]c2ccc(-c3ccc(N4CCN(C(C)C)CC4)cc3)cc12 [Example 84, 4-ethyl-3-(4-methanesulfonylphenyl)-6-{4-[4-(propan-2-yl)piperazin-1-yl]phenyl}-1,2-dihydroquinolin-2-one] | 2.32 | 0.672 | 0.389

Now from value to compound:

IC50 (human TLR7) [µM] | IC50 (human TLR8) [µM] | IC50 (human TLR9) [µM] | Structure (SMILES)
2.14 | 2.47 | 0.427 | CC(C)N1CCN(c2ccc(-c3ccc4[nH]c(=O)c(-c5ccccc5F)cc4c3)cc2)CC1 [Example 42, 3-(2-fluorophenyl)-6-{4-[4-(propan-2-yl)piperazin-1-yl]phenyl}-1,2-dihydroquinolin-2-one]
1.34 | 47 | 0.242 | CC(C)N1CCN(c2ccc(-c3ccc4[nH]c(=O)c(-c5ccc(N(C)C6CN(C)C6)cc5)cc4c3)cc2)CC1 [Example 51, 3-{4-[methyl(1-methylazetidin-3-yl)amino]phenyl}-6-{4-[4-(propan-2-yl)piperazin-1-yl]phenyl}-1,2-dihydroquinolin-2-one]
1.29 | 14.1 | 0.314 | CC(C)N1CCN(c2ccc(-c3ccc4[nH]c(=O)c(-c5nn(C)c6ccccc56)cc4c3)cc2)CC1 [Example 35, 3-(1-methyl-1H-indazol-3-yl)-6-{4-[4-(propan-2-yl)piperazin-1-yl]phenyl}-1,2-dihydroquinolin-2-one]
0.204 | ≥ 50 | 0.078 | CN1CCC(c2ccc(-c3ccc4[nH]c(=O)c(-c5ccc(NS(C)(=O)=O)cc5)cc4c3)cc2)CC1 [Example 70, N-(4-{6-[4-(1-methylpiperidin-4-yl)phenyl]-2-oxo-1,2-dihydroquinolin-3-yl}phenyl)methanesulfonamide]
1.8 | 0.673 | 0.231 | CC(C)C(=O)Nc1ccc(-c2cc3cc(-c4ccc(N5CCN(C(C)C)CC5)cc4)ccc3n(C)c2=O)cc1 [Example 26, 2-methyl-N-[4-(1-methyl-2-oxo-6-{4-[4-(propan-2-yl)piperazin-1-yl]phenyl}-1,2-dihydroquinolin-3-yl)phenyl]propanamide]
1.48 | 0.763 | 0.219 | CC(C)N1CCC(c2ccc(-c3ccc4c(c3)cc(-c3ccccc3)c(=O)n4C)cc2)CC1 [Example 73, 1-methyl-3-phenyl-6-{4-[1-(propan-2-yl)piperidin-4-yl]phenyl}-1,2-dihydroquinolin-2-one]
